Laboratory results reported in PubChem BioAssay (NCI).
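Each compound was tested at five concentrations against cells in 96-well plates for 48 hours. At the TGI there is no net growth.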

Legend:
Assay in all cases: NCI tumour cell line growth inhibition, 48 h
[1] = tested on: SN12C renal
[2] = tested on: SR leukemia
[3] = tested on: SF-268 CNS
[4] = tested on: SK-OV-3 ovarian
[5] = tested on: M19-MEL melanoma
[6] = tested on: HOP-18 NSCLC
[7] = tested on: UACC-257 melanoma
[8] = tested on: RPMI-8226 leukemia
[9] = tested on: A549 NSCLC
[10] = tested on: HCC-2998 colon
[11] = tested on: SNB-19 CNS
[12] = tested on: NCI-H23 lung
[13] = tested on: UO-31 renal
[14] = tested on: NCI-H226 lung
[15] = tested on: SF-295 CNS
[16] = tested on: LOX IMVI melanoma
[17] = tested on: SNB-75 CNS
[18] = tested on: OVCAR-4 ovarian
[19] = tested on: K-562 leukemia
[20] = tested on: NCI-H522 lung
[21] = tested on: DLD-1 colon
[22] = tested on: HOP-92 NSCLC
[23] = tested on: HCT-15 colon
[24] = tested on: OVCAR-8 ovarian
[25] = tested on: SK-MEL-28 melanoma
[26] = tested on: HL-60(TB) leukemia
[27] = tested on: U251 CNS
[28] = tested on: LXFL 529 NSCLC
[29] = tested on: DMS 273 small cell lung
[30] = tested on: OVCAR-3 ovarian
[31] = tested on: SF-539 CNS
[32] = tested on: TK-10 renal
[33] = tested on: IGROV1 ovarian
[34] = tested on: ACHN renal
[35] = tested on: SK-MEL-2 melanoma
[36] = tested on: RXF-631 renal
[37] = tested on: M14 melanoma
[38] = tested on: OVCAR-5 ovarian
[39] = tested on: SK-MEL-5 melanoma
[40] = tested on: RXF 393 renal
[41] = tested on: HT29 colon
[42] = tested on: SW-620 colon
[43] = tested on: UACC-62 melanoma
[44] = tested on: KM12 colon
[45] = tested on: XF 498 CNS
[46] = tested on: CCRF-CEM leukemia
[47] = tested on: MALME-3M melanoma
[48] = tested on: MOLT-4 leukemia
[49] = tested on: HOP-62 NSCLC
[50] = tested on: NCI-H460 lung
[51] = tested on: EKVX NSCLC
[52] = tested on: KM20L2 colon
[53] = tested on: COLO 205 colon
[54] = tested on: DMS 114 small cell lung
[55] = tested on: HCT-116 colon
[56] = tested on: 786-0 renal
[57] = tested on: CAKI-1 renal
[58] = tested on: SNB-78 CNS
[59] = tested on: A498 renal

CC(C)C1COC(C(C)(C)C2=N[C@@H](C(C)C)CO2)=N1 (stereo partly drawn)
TGI [1]: > 100 µM | TGI [2]: > 100 µM | TGI [3]: > 100 µM | TGI [4]: > 100 µM | TGI [5]: > 100 µM | TGI [6]: > 100 µM | TGI [7]: > 100 µM | TGI [8]: > 100 µM | TGI [9]: > 100 µM | TGI [10]: > 100 µM | TGI [11]: > 100 µM | TGI [12]: > 100 µM | TGI [13]: > 100 µM | TGI [14]: > 100 µM | TGI [15]: > 100 µM | TGI [16]: > 100 µM | TGI [17]: > 100 µM | TGI [18]: > 100 µM | TGI [19]: > 100 µM | TGI [20]: > 100 µM | TGI [21]: > 100 µM | TGI [22]: > 100 µM | TGI [23]: > 100 µM | TGI [24]: > 100 µM | TGI [25]: > 100 µM | TGI [26]: > 100 µM | TGI [27]: > 100 µM | TGI [28]: > 100 µM | TGI [29]: > 100 µM | TGI [30]: > 100 µM | TGI [31]: > 100 µM | TGI [32]: > 100 µM | TGI [33]: > 100 µM | TGI [34]: > 100 µM | TGI [35]: > 100 µM | TGI [36]: > 100 µM | TGI [37]: > 100 µM | TGI [38]: > 100 µM | TGI [39]: > 100 µM | TGI [40]: > 100 µM | TGI [41]: > 100 µM | TGI [42]: > 100 µM | TGI [43]: > 100 µM | TGI [44]: > 100 µM | TGI [45]: > 100 µM | TGI [46]: > 100 µM | TGI [47]: > 100 µM | TGI [48]: > 100 µM | TGI [49]: > 100 µM | TGI [50]: > 100 µM | TGI [51]: > 100 µM | TGI [52]: > 100 µM | TGI [53]: > 100 µM | TGI [54]: > 100 µM | TGI [55]: > 100 µM | TGI [56]: > 100 µM

O=C(c1nc2ccc(Cl)cc2[nH]c1=O)C(O)c1cccc([N+](=O)[O-])c1 (stereo not drawn)
TGI [1]: > 100 µM | TGI [2]: > 100 µM | TGI [3]: 81.5 µM | TGI [4]: > 100 µM | TGI [5]: > 100 µM | TGI [6]: > 100 µM | TGI [7]: > 100 µM | TGI [8]: > 100 µM | TGI [9]: > 100 µM | TGI [10]: > 100 µM | TGI [11]: > 100 µM | TGI [12]: > 100 µM | TGI [13]: > 100 µM | TGI [14]: > 100 µM | TGI [15]: > 100 µM | TGI [16]: 40 µM | TGI [17]: > 100 µM | TGI [18]: > 100 µM | TGI [19]: > 100 µM | TGI [20]: > 100 µM | TGI [21]: > 100 µM | TGI [22]: > 100 µM | TGI [23]: > 100 µM | TGI [24]: > 100 µM | TGI [25]: 61.5 µM | TGI [57]: > 100 µM | TGI [26]: 74.1 µM | TGI [27]: > 100 µM | TGI [28]: > 100 µM | TGI [29]: > 100 µM | TGI [30]: > 100 µM | TGI [31]: > 100 µM | TGI [32]: > 100 µM | TGI [33]: > 100 µM | TGI [34]: > 100 µM | TGI [35]: > 100 µM | TGI [37]: > 100 µM | TGI [58]: > 100 µM | TGI [38]: > 100 µM | TGI [39]: > 100 µM | TGI [40]: > 100 µM | TGI [41]: 40.4 µM | TGI [59]: > 100 µM | TGI [43]: > 100 µM | TGI [44]: > 100 µM | TGI [45]: > 100 µM | TGI [46]: > 100 µM | TGI [47]: > 100 µM | TGI [48]: > 100 µM | TGI [49]: > 100 µM | TGI [50]: > 100 µM | TGI [51]: > 100 µM | TGI [52]: > 100 µM | TGI [53]: > 100 µM | TGI [54]: 17.6 µM | TGI [55]: > 100 µM | TGI [56]: > 100 µM
